Assay results published in US6355676B1, “Fumaric acid micro tablets” (Fumapharm AG, priority 1998, dated 2002).
Where a name gives a salt, the structure may show the parent alone.

Columns and labels:
[1] = test system: human mononuclear cells of the peripheral blood (PBMC); experiment: Endotoxin-stimulated TNF-α secretion in PBMC; type: cell-based
Description: (§1) With multiple re-exposure, the endotoxin-induced increase in TNF-α secretion is reduced, i.e. adaptation takes place.

isolated monocytes = experiment: Endotoxin-stimulated TNF-α secretion in isolated monocytes; type: cell-based, human; details: initial exposure
Description: as §1

COC(=O)/C=C/C(=O)O [methyl hydrogen fumarate]
endotoxin-stimulating TNF-α secretion ([1]; initial exposure, PBMC): initially increases
endotoxin-induced increase in TNF-α secretion ([1]; multiple re-exposure, cell type not restated): reduced
endotoxin-stimulating TNF-α secretion (isolated monocytes): initially increases
